# Measured values: patent US7141249B2, “Rapidly soluble drug composition” (Dainippon Sumitomo Pharma Co., Ltd., priority 1997, dated 2006)
# Assays:
# [1] = Water-solubility of AS-3201; type: physicochemical; conditions: in the range of low pH
# Description: The “micronized AS-3201” means powders of AS-3201 having a mean particle size of less than about 20 μm. The “mean particle size” means a particle size of being at 50% in cumulative particle distribution on weight or volume basis (ref., HA Lieberman et al., “Pharmaceutical Dosage Forms: Tablets”, Marcel Dekker, Inc., New York, 1990, vol. 2, 174–186; Kouichi IINOYA (edit.) “Handbook of Powder and Particle Measurement (in Japanese)”, The NIKKAN KOGYO SHINBUN LTD., 1981, 29–36). The “dissolution test” means a test in which the dissolution of AS-3201 from test pharmaceutical compositions in an amount corresponding to 20 mg of AS-3201 is evaluated according to Paddle method (50 rpm) specified in the Twelfth Edition of the Pharmacopoeia of Japan, using a 0.2 M phosphate buffer (pH 6.5, 900 ml) as a test solution, and assaying AS-3201 by spectrophotometry at 300 nm. The “pKa1” means an acid dissociation exponent of an acidic substance at 25° C. in an infinitely diluted solution thereof. When an acidic substance is a polybasic acid, it means an acid dissociation exponent at the first step of dissociation. The “water-solubility” means a maximum amount of a solute being dissolved in 100 ml of water. The term “about” is used with the intention of including values following said term.
# [2] = biological target: aldose reductase (Homo sapiens, UniProt P15121); conditions: disclosed in earlier patents (U.S. Pat. No. 5,258,382, JP-A-6-192222, JP-A-8-176105); cited from earlier work
# [3] = Acidity (pKa) of AS-3201; type: physicochemical
# [4] = Plasma concentration after administration; type: in vivo; conditions: among the individuals to be administered
compound,measurement,setting,value
"O=C1C[C@@]2(C(=O)N1)C(=O)N(Cc1ccc(Br)cc1F)C(=O)c1cccn12 [AS-3201, (R)-2-(4-bromo-2-fluorobenzyl)-1,2,3,4-tetrahydropyrrolo[1,2-a]pyrazine-4-spiro-3′-pyrrolidine-1,2′,3,5′-tetrone]",water-solubility,[1],several
same,aldose reductase inhibitory activity,[2],potent
same,pKa,[3],5.6 to 5.8
same,plasma concentration of AS-3201 (variation among individuals),[4],varies widely
